Measurements published in ChEMBL document CHEMBL5727717, “ABHD6 and dual ABHD6/MGL inhibitors and their uses” (2020).

Experiments:
Monoglyceride lipase = target: T1, Monoglyceride lipase (Homo sapiens, UniProt Q99685); assay: This medium throughput assay involved a 96-well plate format in which hMGL activity was monitored by the hydrolysis of the substrate 7-hydroxy-6-methoxy-4-methylcoumarin ester (AHMMCE) to form the fluorescent product, coumarin. […] Upon the addition of AHMMCE, the reaction was incubated at 25° C. for 120 min; fluorescence readings were taken every 15 min at 360 nm/460 nm (λexcitation/λemission) using a Synergy HT Plate Reader (Bio-Tek, Winooski, Vt.). […] External standards were used to convert relative fluorescence units to the amount of 4-methylcoumarin formed.
T1 sequence (Q99685 whole entry): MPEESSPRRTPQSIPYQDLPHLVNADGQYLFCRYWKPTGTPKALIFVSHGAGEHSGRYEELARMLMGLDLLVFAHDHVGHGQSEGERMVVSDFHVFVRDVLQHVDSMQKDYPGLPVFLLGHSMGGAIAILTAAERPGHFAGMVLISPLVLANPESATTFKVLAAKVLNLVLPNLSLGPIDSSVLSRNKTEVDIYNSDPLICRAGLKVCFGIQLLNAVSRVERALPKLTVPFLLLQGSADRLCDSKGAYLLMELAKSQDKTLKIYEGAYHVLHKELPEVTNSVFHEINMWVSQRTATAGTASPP

[1] = Fluorescent Assay: hABHD6:Initial Fluorescent Inhibition Assay (3-Point)—In each well of a 96-well plate 8 μL of membrane fraction containing full-length hABHD6 (1 μg total protein) was mixed with 168 μL of assay buffer (50 mM Tris-HCl, pH 7.6), and 20 μL of diluted compound (diluted in a dilution buffer consisting of 50% DMSO/50% assay buffer v/v). Each plate was incubated at RT for 15 minutes before adding 4 μL of 1 mM AHMMCE substrate (final concentration of 20 μM AHMMCE and final volume of 200 μL). The reaction was allowed to proceed for 1 hr at RT before the fluorescence was read at λex 360 nm and λem 460 nm and the inhibition calculated. Each experiment can test 8 compounds at three concentrations (usually 10 μM, 1 μM, and 100 nM).

IC50 (Monoglyceride lipase)	IC50 [1]	Structure (SMILES)
> 1000 nM	–	O=C(OC(C(F)(F)F)C(F)(F)F)N1Cc2ccc(N3CCS(=O)(=O)CC3)cc2C1
–	> 1000 nM	O=C(OC(C(F)(F)F)C(F)(F)F)N1CCC2(CC(OC(c3ccc(F)cc3)c3ccc(F)cc3)C2)C1 (configuration not stated)
